Assay results: patent US20120040965A1, “SUBSTITUTED AZEPINO[4,3-B]INDOLES, PHARMACOLOGICAL COMPOSITION AND A METHOD FOR THE PRODUCTION AND USE THEREOF” (priority 2006, published 2012)

What was measured:
[1] = tested on: cytosolic calcium ions concentration in cells; assay: Histamine-induced calcium streams in SK-N-SH cells, Phase 2 (acceleration of cytosolic calcium removal); assay type: cell-based; settings: Homo sapiens, Phase 2: acceleration of intraplasmatic calcium removal, histamine 10 μM, read-out: pIC50 Phase 2 (converted)
Description: (§1) Tests of biological activity of compounds of general formula 1. In order to determine a physiological activity of the proposed compounds a focused library was compiled to include compounds of general formula 1, some of which are shown in Table 2 below. The compounds were tested as potential histamine H1 receptor antagonists, and their ability to regulate cytosolic calcium ions concentration in cells by blocking calcium channels regulated by intracellular calcium repositories was determined. Cells SK-N-SH (ATCC, USA) were grown on DMEM medium (Invitrogen, USA), containing 10% fetal calf serum (FBS) and antibiotic penicillin-streptomycin in CO2 incubator (5% CO2) until cell density was 1*10^5 cells/cm^2. The cells were removed from flask surface by reagent TrypLE Express (Invitrogen, USA), collected by centrifugation and resuspended in medium Hybridoma Serum Free Medium (HSFM, Sigma, USA) in concentration of 4*10^6 cells/ml. For measurement of cytosolic calcium concentration the cells were loaded with calcium sensitive fluorescent dye Fura 2 AM (Invitrogen, USA) by means of hatching of cells with a dye in suspension for 30 minutes at room temperature. The cells were collected by centrifugation, resuspended in HSFM, incubated in suspension for 15 minutes, collected by centrifugation, washed twice in HSFM and resuspended in HSFM in concentration of 4*10^6 cells/ml.
(§2) Registration of calcium streams in cells was carried out using spectrofluorometer Shimadzu-RF5301PC. The cells were diluted with buffer (NaCl 0.145 M, KCl 0.0054 M, NaH2PO4 0.001 M, MgSO4 0.0008 M, CaCl2 0.0018 M, HEPES 0.03 M, D-glucose 0.0112 M pH 7.4) till concentration 1*10^5 cells/ml in measuring cuvette provided with magnetic stirrer, and fluorescence was registered using a regime of two-wave excitement (340 and 380 nm, respectively) at wavelength of emission 510 nm (F1 and F2, respectively). In 20 seconds after beginning of registration 10 mM of histamine water solution was added (final concentration is 10 μM). In another 30 seconds, after achievement of calcium cytosolic concentration peak a solution of tested compound in DMSO was added and registration was continued for 3 minutes. Serial dilutions of the compounds in dimethylsulfoxide (DMSO) were prepared for determination of their biological activity, and the effect of the concentration of compound on the calcium streams induced by histamine was determined.
(§3) Transformation of fluorescence signal into calcium concentration was carried out by means of equation imbedded in program Super Ion Probe (Shimadzu), for which maximum of free calcium concentration by addition of digitonin (Sigma, USA) up to concentration of 0.1 mg/ml and zero calcium concentration by addition of ethylenediamine-tetraacetate (EDTA) up to concentration of 10 mM were determined. Kinetic curves of cytosolic calcium decrease after addition of tested compound compared to concentration after addition of histamine were calculated using single-phase exponential model by means of Prism 4 (GraphPad Software, Inc.) program:
[Ca]=[Ca]max*exp(−K*T)+[Ca]min,
wherein T means time after addition of tested compound, [Ca]max and [Ca]min correspond to maximum (peak meaning after addition of histamine) and minimum (equilibrium level to which the curve converges after addition of tested compound) concentrations of cytosolic calcium, and K means a kinetic constant of the decrease of cytosolic calcium concentration which is calculated by minimization of the least squares of deviations.
The dependence of calculated constants of calcium decreasing (K) on the concentration of tested compound (C) was drawn up, and using this dependence by means of program Prism 4 the value of EC50 (concentration of tested compound corresponding to half-maximum increase of a kinetic constant of cytozoic calcium concentration decrease) was defined using four parametrical equation. […]

histamine H1 receptor = biological target: T1, histamine H1 receptor (Homo sapiens, UniProt P35367); assay: Histamine-induced calcium streams in SK-N-SH cells, Phase 1 (H1 receptor antagonism); assay type: cell-based; settings: Phase 1: compounds prevent calcium ions entry in cells by antagonistic action on H1-receptors, histamine 10 μM, read-out: pIC50 Phase 1 (converted)
T1 construct: host or cells: SK-N-SH
Description: as §1, §2
as §3, with “program: […]” for “program:”
In Table 2 below the values corresponding to the reciprocal logarithm of EC50(−LogEC50=pEC50) for some of tested compounds of general formula 1 used as measures of these compounds activity are presented.

T1 sequence (P35367 whole entry): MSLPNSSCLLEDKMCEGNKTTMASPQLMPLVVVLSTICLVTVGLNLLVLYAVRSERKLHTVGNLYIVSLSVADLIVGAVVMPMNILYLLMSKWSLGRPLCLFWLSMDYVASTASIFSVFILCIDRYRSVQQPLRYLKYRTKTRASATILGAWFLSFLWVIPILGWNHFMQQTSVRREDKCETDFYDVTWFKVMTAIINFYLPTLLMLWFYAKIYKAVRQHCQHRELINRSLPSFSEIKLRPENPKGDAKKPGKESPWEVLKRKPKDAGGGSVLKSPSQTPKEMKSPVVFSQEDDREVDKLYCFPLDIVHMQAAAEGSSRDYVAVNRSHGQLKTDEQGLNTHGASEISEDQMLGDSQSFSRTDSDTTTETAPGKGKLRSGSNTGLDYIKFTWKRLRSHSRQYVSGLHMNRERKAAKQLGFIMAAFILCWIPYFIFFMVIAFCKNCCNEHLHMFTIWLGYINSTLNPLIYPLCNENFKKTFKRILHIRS

| Structure (SMILES) | IC50 [1] [nM] | IC50 (histamine H1 receptor) [nM] |
| --- | --- | --- |
| Cc1ccc2c(c1)[C@@H]1CN(C)CCC[C@H]1N2CCc1ccccn1 (relative stereo) [1.2.5(1), trans-2,9-dimethyl-6-[2-(pyridin-2-yl)ethyl]-1,2,3,4,5,5a,6,10b-octahydroazepino[4,3-b]indole] | 2510 | 1000 |
| Cc1ccc2c(c1)[C@@H]1CN(C)CCC[C@H]1N2CCc1ccc(C)nc1 (relative stereo) [1.2.5(2), trans-2,9-dimethyl-6-[2-(6-methylpyridin-3-yl)ethyl]-1,2,3,4,5,5a,6,10b-octahydroazepino[4,3-b]indole] | 1000 | 251 |
| Cc1ccc2c(c1)[C@@H]1CN(C)CCC[C@H]1N2CCc1ccncc1 (relative stereo) [1.2.5(3), trans-2,9-dimethyl-6-[2-(pyridin-4-yl)ethyl]-1,2,3,4,5,5a,6,10b-octahydroazepino[4,3-b]indole] | 1000 | 158 |
| Cc1ccc2c(c1)[C@@H]1CN(C)CCC[C@H]1N2CCc1cccnc1 (relative stereo) [1.2.5(4), trans-2,9-dimethyl-6-[2-(pyridin-3-yl)ethyl]-1,2,3,4,5,5a,6,10b-octahydroazepino[4,3-b]indole] | 2510 | 158 |
| CN1CCC[C@@H]2[C@@H](C1)c1cc(F)ccc1N2CCc1cccnc1 (relative stereo) [1.2.5(5), trans-2-methyl-6-[2-(pyridin-3-yl)ethyl]-9-fluoro-1,2,3,4,5,5a,6,10b-octahydroazepino[4,3-b]indole] | 631 | 126 |
| CN1CCC[C@@H]2[C@@H](C1)c1cc(-c3ccncc3)ccc1N2CCc1cccnc1 (relative stereo) [1.2.5(6), trans-2-methyl-6-[2-(pyridin-3-yl)ethyl]-9-(pyridin-4-yl)-1,2,3,4,5,5a,6,10b-octahydroazepino[4,3-b]indole] | 1000 | 251 |
| Cc1ccc2c(c1)[C@@H]1CN(C)CCC[C@H]1N2Cc1ccccc1 (relative stereo) [1.2.6(1), trans-6-benzyl-2,9-dimethyl-1,2,3,4,5,5a,6,10b-octahydroazepino[4,3-b]indole] | 631 | 126 |
| Cc1ccc2c(c1)[C@@H]1CN(C)CCC[C@H]1N2Cc1ccc(C(=O)O)cc1 (relative stereo) [1.2.6(2), trans-4-(2,9-dimethyl-1,2,3,4,5,5a,10b-octahydroazepino[4,3-b]indol-6-ylmethyl)benzoic acid] | > 100000 | > 100000 |
| Cc1ccc2c(c1)[C@@H]1CN(C)CCC[C@H]1N2CCc1ccccc1 (relative stereo) [1.2.6(3), trans-2,9-dimethyl-6-phenethyl-1,2,3,4,5,5a,6,10b-octahydroazepino[4,3-b]indole] | 2000 | 158 |
| Cc1ccc2c(c1)[C@@H]1CN(C)CCC[C@H]1N2Cc1ccccn1 (relative stereo) [1.2.6(4), trans-2,9-dimethyl-6-(pyridin-2-ylmethyl)-1,2,3,4,5,5a,6,10b-octahydroazepino[4,3-b]indole] | 1580 | 631 |
| Cc1ccc2c(c1)[C@@H]1CN(C)CCC[C@H]1N2Cc1cccnc1 (relative stereo) [1.2.6(5), trans-2,9-dimethyl-6-(pyridin-3-ylmethyl)-1,2,3,4,5,5a,6,10b-octahydroazepino[4,3-b]indole] | 1580 | 100 |
| Cc1ccc2c(c1)[C@@H]1CN(C)CCC[C@H]1N2Cc1ccncc1 (relative stereo) [1.2.6(6), trans-2,9-dimethyl-6-(pyridin-4-ylmethyl)-1,2,3,4,5,5a,6,10b-octahydroazepino[4,3-b]indole] | 5010 | 200 |
| Cc1ccc2c(c1)[C@@H]1CN(C)CCC[C@H]1N2C(=O)c1ccccc1 (relative stereo) [1.2.7(3), trans-6-benzoyl-2,9-dim ethyl-1,2,3,4,5,5a,6,10b-octahydroazepino[4,3-b]indole] | > 100000 | > 100000 |
| CC(=O)N1c2ccc(C)cc2[C@@H]2CN(C)CCC[C@H]21 (relative stereo) [1.2.7(4), trans-6-acetyl-2,9-dimethyl-1,2,3,4,5,5a,6,10b-octahydroazepino[4,3-b]indole] | > 100000 | > 100000 |
| Cc1ccc2[nH]c3c(c2c1)CN(C)CCC3 [1.1.3.3(1), 2,9-dimethyl-1,2,3,4,5,6-hexahydroazepino[4,3-b]indole] | > 100000 | > 100000 |
| Cc1ccc2[nH]c3c(c2c1)CN(C(=O)c1ccccc1)CCC3 [1.1.3.4(1), 2-benzoyl-9-methyl-1,2,3,4,5,6-hexahydroazepino[4,3-b]indole] | > 100000 | > 100000 |
| Cc1ccc2[nH]c3c(c2c1)CN(C(=O)Nc1ccccc1)CCC3 [1.1.3.5(1), 2-phenylcarbamoyl-9-methyl-1,2,3,4,5,6-hexahydroazepino[4,3-b]indole] | > 100000 | > 100000 |
| Cc1ccc2[nH]c3c(c2c1)CN(S(=O)(=O)c1ccccc1)CCC3 [1.1.3.6(1), 2-phenylsulfonyl-9-methyl-1,2,3,4,5,6-hexahydroazepino[4,3-b]indole] | > 100000 | > 100000 |
| Cc1ccc2c(c1)c1c(n2CCc2ccccn2)CCCN(C)C1 [1.1.5(1), 2,9-dimethyl-6-[2-(pyridin-2-yl)ethyl]-1,2,3,4,5,6-hexahydroazepino[4,3-b]indole] | 3160 | 3160 |
| Cc1ccc2c(c1)c1c(n2CCc2ccc(C)nc2)CCCN(C)C1 [1.1.5(2), 2,9-dimethyl-6-[2-(6-methylpyridin-3-yl)ethyl]-1,2,3,4,5,6-hexahydroazepino[4,3-b]indole] | 1580 | 316 |
| Cc1ccc2c(c1)c1c(n2CCc2ccncc2)CCCN(C)C1 [1.1.5(3), 2,9-dimethyl-6-[2-(pyridin-4-yl)ethyl]-1,2,3,4,5,6-hexahydroazepino[4,3-b]indole] | 1260 | 200 |
| Cc1ccc2c(c1)c1c(n2CCc2cccnc2)CCCN(C)C1 [1.1.5(5)] | 3160 | 501 |
